Where “and” joins values, the source holds several entries; their conditions need not be identical. Equal values may be shown once.
How the values were obtained:
[1] = test system: AtproPep1, MPK3 and WRKY gene expression; assay: Marker gene induction in two-week-old seedlings grown in liquid medium (RT-PCR, qRT-PCR); assay type: in vivo, Arabidopsis thaliana
Procedure: Using AtproPep1 and MPK3 as marker genes, the response to AtPep1 of the T-DNA insertional mutants was analyzed. […] […]1 and […]2 mutants are unable to respond to AtPEP1. To further examine the importance of […]1 and […]2 in AtPep1 signaling, the expression level of WRKY transcription factor genes, WRKY22, WRKY29, WRKY33. WRKY53 and WRKY55, were monitored by qRT-PCR after supplying AtPep1 to wild type Arabidopsis and T-DNA insertional mutants of […]1 and […]2. These WRKY genes were reported to be induced by the fungal PAMP, chitin (Wan et al., Plant Cell 20: 471-481, 2008), and the bacterial PAMPs, […] et al., Cell 125:749-760, 2006). […] In the double mutants, […] […] We also examined the effect of supplying AtPep1 to the double mutants on the expression of the antimicrobial protein genes, defensin (PDF1.2) and pathogenesis related protein (PR-1) […] peptides are known to induced these genes (Huffaker and Ryan, Proc. Natl. Acad. Sci. USA 104: 10732-10736, 2007). Since the expression levels of PDF1.2 and PR-1 gene in Arabidopsis seedlings grown in liquid medium were already high, the method of supplying AtPep1 was changed. Four-week-old Arabidopsis plants grown in soil were sprayed with 1 μM AtPep1 in 0.01% Silwet L-77, and subjected to qRT-PCR analysis after 6 hours.

AtPEPR2 = target: T1, AtPEPR2 (Arabidopsis thaliana, UniProt Q9FZ59); assay: Medium alkalinization of transgenic tobacco cells expressing AtPEPR2; assay type: cell-based
T1 construct: the AtPEPR2 coding region was fused to the CaMV 35S promoter and introduced into tobacco suspension-cultured cells; expressed in transfected cells; host or cells: tobacco suspension-cultured cells, transformed by Agrobacterium, kanamycin-selected
T1 sequence (Q9FZ59 27-1088): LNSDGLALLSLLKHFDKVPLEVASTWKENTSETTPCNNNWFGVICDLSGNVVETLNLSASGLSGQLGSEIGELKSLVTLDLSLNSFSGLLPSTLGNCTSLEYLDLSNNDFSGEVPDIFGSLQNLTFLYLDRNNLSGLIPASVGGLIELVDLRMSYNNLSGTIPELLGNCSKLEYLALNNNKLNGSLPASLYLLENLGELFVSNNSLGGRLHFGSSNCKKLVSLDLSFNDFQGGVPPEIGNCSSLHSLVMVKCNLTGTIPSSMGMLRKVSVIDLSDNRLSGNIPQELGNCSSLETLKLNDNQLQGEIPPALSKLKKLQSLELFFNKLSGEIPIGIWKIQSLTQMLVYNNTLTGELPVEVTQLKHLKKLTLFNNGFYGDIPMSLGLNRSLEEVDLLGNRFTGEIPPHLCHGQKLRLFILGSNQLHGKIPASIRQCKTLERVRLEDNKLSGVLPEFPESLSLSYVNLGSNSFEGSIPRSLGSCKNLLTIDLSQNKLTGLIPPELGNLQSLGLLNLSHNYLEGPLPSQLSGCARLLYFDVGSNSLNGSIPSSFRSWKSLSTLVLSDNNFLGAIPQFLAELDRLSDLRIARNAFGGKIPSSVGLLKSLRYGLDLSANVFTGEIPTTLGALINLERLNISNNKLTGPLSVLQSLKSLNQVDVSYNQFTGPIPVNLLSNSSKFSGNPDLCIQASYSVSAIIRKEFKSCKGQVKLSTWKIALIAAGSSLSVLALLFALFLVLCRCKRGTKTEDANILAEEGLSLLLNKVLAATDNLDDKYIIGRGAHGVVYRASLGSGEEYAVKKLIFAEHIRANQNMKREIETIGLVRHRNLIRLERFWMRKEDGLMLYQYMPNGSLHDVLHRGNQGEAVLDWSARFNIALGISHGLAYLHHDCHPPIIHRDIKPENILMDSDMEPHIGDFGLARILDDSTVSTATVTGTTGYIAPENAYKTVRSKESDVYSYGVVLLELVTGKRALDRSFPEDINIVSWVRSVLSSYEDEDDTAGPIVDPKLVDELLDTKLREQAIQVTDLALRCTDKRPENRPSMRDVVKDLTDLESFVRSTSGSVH
Procedure: To clarify whether AtPEPR2 binds to AtPep1, the AtPEPR2 coding region was fused to the CaMV 35S promoter and introduced into tobacco suspension-cultured cells by Agrobacterium. Tobacco cells expressing AtPEPR1 and GUS genes were also created as positive and negative controls, respectively. […] These transgenic lines were analyzed for alkalinizing activity as previously described (Pearce et al., Proc. Natl. Acad. Sci. USA 98, 12843-12847, 2001).
The response to all AtPep peptides in transgenic tobacco cells expressing either AtPEPR1 or AtPEPR2 was analyzed by the medium alkalinization assay.

[2] = AtPEPR2 expressing tobacco cells

H-ATKVKAKQRGKEKVSSGRPGQHN-OH [AtPep1]
response (AtproPep1, MPK3) in double mutants of AtPEPR1 and AtPEPR2 ([1]; 10 nM for 30 min): completely lost the response
response (AtproPep1, MPK3) in AtPEPR2 mutants ([1]; 10 nM for 30 min, SALK_036564 and SALK_004447): did not show the clear reduction
reduction of AtproPep1 and MPK3 induction in AtPEPR1 mutants ([1]; 10 nM for 30 min, SALK_059281 and SALK_014538): > 50%
WRKY responses in double mutants pepr1-1/pepr2-1 and pepr1-2/pepr2-2 ([1]; 10 nM, 30 min): completely abolished
lower induction of WRKY genes in pepr1-1 and pepr1-2 ([1]; 10 nM, 30 min): 50%
induction of WRKY33, WRKY53, WRKY22, WRKY29 and WRKY55 ([1]; 10 nM, 30 min, wild type): highly induced
EC50 (AtPEPR2): ~0.25 nM
alkalinization of the medium (AtPEPR2; [2]): caused alkalinization of the media
maximal change (AtPEPR2; [2]): 1-1.2 pH units and 1.2 pH units

From patent US8686224B2, “Plant defense signal peptides” (priority 2005, dated 2014)
